This passage reports GI50 results from patent US12570618B2, “Compound, production method therefor, and pharmaceutical composition” (TOKYO UNIVERSITY OF SCIENCE FOUNDATION, priority 2021, dated 2026).

A word on the GI50: it is the concentration giving 50% growth inhibition.

Assay in all cases: cell proliferation inhibitory activity, WST-8 (Test Example 3)
Common to all, as to format: cell-based
For orientation: Tetrazolium dyes change colour on reduction, which living cells bring about.

Assay [1] relates to H1650 (Lung adenocarcinoma cell line). As to conditions: Homo sapiens, NCI-H1650, 48 h; H1650, 2 days with compound, WST-8, Table 3. Here is the method:
(§1) Compounds RS8 to RS10 obtained in Synthesis Examples 8 to 10 were examined for cell proliferation inhibitory activity against human cultured cancer cells. The cancer cells used were two human lung adenocarcinoma cell lines and one human lung squamous cell carcinoma cell line. The cancer cells of each type were seeded on a 96-well plate and cultured for 2 days, and cultured for 2 days with addition of serially diluted products of the compounds, and the cell proliferation was then measured by colorimetry with a water-soluble tetrazolium salt (WST-8). Thereafter, 50% cell proliferation inhibitory concentrations (GI50) were calculated from the cell proliferation curves.

Assay [2] relates to H2228 (Lung adenocarcinoma cell line). Particulars: Homo sapiens, NCI-H2228, 48 h; H2228, 2 days with compound, WST-8, Table 3. How it is done: as §1
Assay [3] concerns H226 (Lung squamous cell carcinoma cell line). As to conditions: Homo sapiens, NCI-H226, 48 h; H226, 2 days with compound, WST-8, Table 3. Here is the method: as §1

With `C[C@@H]1[C@@H](O)[C@H](C)C[C@@H]2C=C[C@H](C)[C@H](/C=C/C=C(\Br)C(=O)NCc3ccccn3)[C@@H]12` [RS8, (2Z,4E)-2-Bromo-5-((1′S,2′S,4′aR,6′R,7′S,8′S,8′aS)-7′-hydroxy-2′,6′,8′-trimethyl-1′,2′,4′a,5′,6′,7′,8′,8′a-octahydronaphthalen-1′-yl)-N-(pyridin-2″-ylmethyl)penta-2,4-dienamide], the GI50 in assay [1] turned out to be 300 nM; in assay [2], 300 nM; in assay [3], 40 nM.

Regarding `C[C@@H]1[C@@H](O)[C@H](C)C[C@@H]2C=C[C@H](C)[C@H](/C=C/C=C(\Br)C(=O)OCc3cccnc3)[C@@H]12` [RS9, Pyridin-3″-ylmethyl (2Z,4E)-2-bromo-5-((1′S,2′S,4′aR,6′R,7′S,8′S,8′aS)7′-hydroxy-2′,6′,8′-trimethyl-1′,2′,4′a,5′,6′,7′,8′,8′a-octahydronaphthalen-1′-yl)penta-2,4-dienoate], the GI50 in assay [1] came to 200 nM; in assay [2] it was 400 nM; in assay [3], 40 nM.

As for `C[C@@H]1[C@@H](O)[C@H](C)C[C@@H]2C=C[C@H](C)[C@H](/C=C/C=C(\Br)C(=O)OCc3ccccn3)[C@@H]12` [RS10, Pyridin-2″-ylmethyl (2Z,4E)-2-bromo-5-((1′S,2′S,4′aR,6′R,7′S,8′S,8′aS)-7′-hydroxy-2′,6′,8′-trimethyl-1′,2′,4′a,5′,6′,7′,8′,8′a-octahydronaphthalen-1′-yl)penta-2,4-dienoate], the results for the GI50 in assay [1], in assay [2] and in assay [3] were 500 nM, 700 nM and 300 nM, respectively.
